Reference: patent publication US11140897B2, “Liquid-core capsules for pest control” (Katz Biotech AG, priority 2015, dated 2021)

Columns and labels:
true bugs = experiment: electrophysiological examinations (electroantennography) of true bugs; details: higher concentration (10 μg/μL, FIG. 9)
Procedure: Electroantennography is a method for measuring the olfactory reactions of an insect by recording electrical signals on the antennae, wherein slow changes in receptor potential that are preferably recorded in the extracellular space within the insect antenna are analyzed. Complex odor mixtures may be investigated using this method. For instance, the use of electroantennography for identifying attractants for wasps is known from DE 11 2010 005 095 T5.
FIGS. 8 and 9 summarize the results of electrophysiological examinations of true bugs. Green leaf volatiles (Z)-3-hexenyl acetate, (Z)-3-hexen-1-ol, 1-hexenal, the terpenoids (E)-β-caryophyllene, methyl salicylate, ocimene, phenylacetaldehyde, nonanal, alpha-pinene, and geraniol were tested as plant odors, hexyl butyrate and (E)-2-hexenyl butyrate were tested as pheromones of insects, and a synthetic active substance mixture made of (Z)-3-hexen-1-ol, (E)-β-caryophyllene, and hexyl butyrate were tested. FIG. 8 provides the responses in female (a) and male (b) true bugs at an active substance concentration of 0.1 μg/μL. FIG. 9 provides the responses in female (a) and male (b) true bugs at an active substance concentration of 10 μg/μL.

[1] = loss in mass of alginate model cylinders with additives in the hydrogel; type: physicochemical
Procedure: The following table summarizes the absolute losses in mass for alginate model cylinders (d=13 mm, h=13 mm) after 240 minutes, with the addition of various additives in their most suitable concentrations and the relative losses in mass compared to the losses in mass of the standard specimen without the additives (MCC—microcrystalline cellulose, EC—ethyl cellulose).

Lygus rugulipennis [2] = experiment: olfactometer experiments for attractant effect on true bugs; type: in vivo; details: for true bugs running in the direction of the attractant / attracting action: attractant concentration 0.01 μg/μL (FIG. 7)
Procedure: Comparative behavior studies were conducted on the bug species Lygus rugulipennis in the olfactometer for identifying suitable attractants (odors). The attracting action of a total of 28 different concentrations of substances and substance mixtures was determined in about 380 individual tests. A result was considered purely coincidental if 50% of the animals decided in favor of an odor and 50% decided against. The odor is considered attractive if more than about 65% of the animals move towards it. […] The certainty of the evaluation increases with the number of tests and is accepted after about 10 repetitions.

Lygus rugulipennis [3] = experiment: effect on true bugs after ingesting core liquid with active substance; type: in vivo
Procedure: Experiments were conducted with Lygus rugulipennis and the liquid-core capsules according to the invention, wherein an aqueous nutrient solution having 0.5% NeemAzal® T/S (biological active substance: azadirachtin 0.1%) was present in the core of the capsules. Another experiment was conducted with the chemical active substance acetamiprid (0.01%). When they had contact with the liquid-core capsules, the true bugs used their proboscis to pierce the outer shells of the liquid-core capsules and ingest at least some of the core solution. […] The animals were subjected to a 6-hour hunger phase prior to the beginning of the experiment. […] The lengthy dwell time of the proboscis in the capsule permits this conclusion. With the imago insects, this was an average of 160 seconds, 150 seconds with the nymphs. With the imago insects, this was preceded by a mean testing period (feeling the capsule with the proboscis) of about 30 seconds.
The true bugs ceased their activity nearly entirely about 1 day after ingesting the core liquid with the active substance azadirachtin and died after 5 days, on average. The chemical active substance acetamiprid took effect a few seconds after being ingested.

[4] = active substance release from liquid-core capsules in two manufacturing variants (headspace sampling, GC-MS); type: physicochemical; details: 1 week
Procedure: The experiment was conducted in principle as in the model system described in Section D in terms of odor collection and analysis using gas chromatography with mass spectrometry coupling. The following table and FIG. 6 summarize the results of the experiment.

[5] = core: nutrient solution with 0.5% NeemAzal T/S (azadirachtin 0.1%)

| Structure (SMILES) | odor collected ([4]; capsules Type 1) [%] | quantity of odor per unit of time ([4]; capsules Type 1) [µg] | odor collected ([4]; capsules Type 2) [%] | quantity of odor per unit of time ([4]; capsules Type 2) [µg] | true bugs running in the direction of the attractant / attracting action (Lygus rugulipennis [2]) | change of attracting effect in increased concentrations (Lygus rugulipennis [2]; in vivo) | also measured |
| --- | --- | --- | --- | --- | --- | --- | --- |
| O=CCc1ccccc1 [phenylacetaldehyde] |  |  |  |  |  |  | registration by antennal chemoreceptors (true bugs): registered |
| CCCCCCCCCCCCCCCCCC(=O)O [Stearic acid] |  |  |  |  |  |  | Loss in mass [%] after 240 min with additive (“Specimen”) ([1]; alginate model cylinders d=13 mm, h=13 mm, additive in its most suitable concentration): 6.92%; Specimen loss in mass after 240 min compared to Standard loss in mass [%] ([1]; relative to standard specimen without additive): −6.87% |
| CCCCCCCCC=O [nonanal] |  |  |  |  | about 45% | increases | attracting action (Lygus rugulipennis [2]; concentration 1 μg/μL): about 60%; registration by antennal chemoreceptors (true bugs): registered |
| C/C=C(\C)C(=O)O[C@H]1C[C@@H](OC(C)=O)[C@@]2(C(=O)OC)CO[C@H]3[C@@H](O)[C@@](C)([C@]45O[C@@]4(C)[C@H]4C[C@@H]5O[C@@H]5OC=C[C@@]54O)[C@H]4[C@]1(CO[C@]4(O)C(=O)OC)[C@@H]32 [azadirachtin] |  |  |  |  |  |  | time to death, on average (Lygus rugulipennis [3]; [5]): 5 days; time until activity ceased nearly entirely after ingesting the core liquid (Lygus rugulipennis [3]; [5]): about 1 day |
| C/C(=N\C#N)N(C)Cc1ccc(Cl)nc1 [acetamiprid] |  |  |  |  |  |  | time until active substance took effect after being ingested (Lygus rugulipennis [3]; acetamiprid 0.01% in core): a few seconds; time to death (Lygus rugulipennis [3]; acetamiprid 0.01% in core, after violent quivering): a few minutes later |
| C=C1CC/C=C(\C)CC[C@@H]2[C@@H]1CC2(C)C [(E)-b-caryophyllene] | 6.8 | 205.2 | 26.0 | 781.0 | 80% | reduced |  |

Now from value to compound, other results behind:

| odor collected ([4]; capsules Type 1) [%] | quantity of odor per unit of time ([4]; capsules Type 1) [µg] | odor collected ([4]; capsules Type 2) [%] | quantity of odor per unit of time ([4]; capsules Type 2) [µg] | Structure (SMILES) | true bugs running in the direction of the attractant / attracting action (Lygus rugulipennis [2]) | change of attracting effect in increased concentrations (Lygus rugulipennis [2]; in vivo) | also measured |
| --- | --- | --- | --- | --- | --- | --- | --- |
| 0.5 | 15.2 | 7.8 | 235.1 | CC/C=C\CCO [(Z)-3-hexen-1-ol] | 80% | reduced |  |
| 2.0 | 58.8 | 19.7 | 592.0 | CCCCCCOC(=O)CCC [Hexyl butyrate] |  |  | attraction in olfactometer experiments (Lygus rugulipennis [2]; in vivo): not preferred |
